In patent US20230233640A1, “ANTIVIRAL PREPARATION FROM CHESTNUT SHELLS OF CASTANEA SATIVA MILL” (Micronature S.R.L., priority 2019, published 2023):
Like-named read-outs stand apart in the source and are kept apart here.

How the values were obtained:
[1] = Cytotoxicity in MT-4 cells (MTT); format: cell-based; settings: human
Excerpt: (§1) Cell lines were purchased from American Type Culture Collection (ATCC). The absence of mycoplasma contamination was checked periodically by the Hoechst staining method. Cell lines supporting the multiplication of RNA viruses were the following: CD4+ human T-cells containing an integrated HTLV-1 genome (MT-4); Madin Darby Bovine Kidney (MDBK) [ATCC CCL 22 (NBL-1) Bos Taurus]; Baby Hamster Kidney (BHK-21) [ATCC CCL 10 (C-13) Mesocricetus auratus], Vero cells (CCL-81; American Type Culture Collection, Manassas, VA, USA)
(§2) Cytotoxicity assays were run in parallel with antiviral assays.
Exponentially growing MT-4 cells were seeded at an initial density of 1 × 10^5 cells/ml in 96-well plates in RPMI-1640 medium, supplemented with 10% fetal bovine serum (FBS), 100 units/mL penicillin G and 100 µg/mL streptomycin. Cell cultures were then incubated at 37° C. in a humidified, 5% CO2 atmosphere, in the absence or presence of serial dilutions of test compounds. Cell viability was determined after 96 hrs at 37° C. by the 3-(4,5-dimethylthiazol-2-yl)-2,5-diphenyl-tetrazolium bromide (MTT) method (Pauwels et al. 1988).

[2] = Cytotoxicity in VERO cells; format: cell-based; settings: reference marked * (µM)
Excerpt: as §2

BVDV = format: cell-based, bovine viral diarrhoea virus (BVDV) strain NADL; settings: reference marked * (µM); 50% protection of MDBK cells; read-out: In vitro efficacy EC50 BVDV
MDBK cells = experiment: Cytotoxicity in MDBK cells (MTT); format: cell-based, Bos Taurus; settings: reference marked * (µM)
Excerpt: as §1, §2
MDBK cells were seeded in 96-well plates at an initial density of 6 × 10^5 and 1 × 10^6 cells/mL, respectively, in Minimum Essential Medium with Earle’s salts (MEM-E), L-glutamine, 1 mM sodium pyruvate and 25 mg/L kanamycin, supplemented with 10% horse serum (MDBK). Cell cultures were then incubated at 37° C. in a humidified, 5% CO2 atmosphere in the absence or presence of serial dilutions of test compounds. Cell viability was determined after 72 hrs at 37° C. by the MTT method. […] Vero cells (1 × 10^6) were plated in 6-well multiwells and incubated the next day with the substance at the same concentrations used in the antiviral assays. […]

## O=C1Nc2ccc(Cl)cc2[C@@](C#CC2CC2)(C(F)(F)F)O1 [EFV, Efavirenz]
[1]
  CC50 at 96 h: 40 µM

## CC[C@H](C)[C@H](NC(=O)[C@H](C)NC(=O)[C@H](CCC(=O)O)NC(=O)[C@H](CCC(=O)O)NC(=O)[C@H](CC(C)C)NC(=O)[C@H](CCCCN)NC(=O)[C@H](CCCCN)NC(=O)[C@H](CCSC)NC(=O)[C@H](CCC(=O)O)NC(=O)[C@H](Cc1ccc(O)cc1)NC(=O)[C@H](CCC(=O)O)NC(=O)[C@H](CC(C)C)NC(=O)[C@H](CC(=O)O)NC(=O)[C@H](CC(C)C)NC(=O)[C@H](Cc1ccccc1)NC(=O)[C@@H](NC(=O)[C@@H](NC(=O)[C@H](CC(N)=O)NC(=O)[C@@H](NC(=O)[C@H](CCC(N)=O)NC(=O)[C@H](CC(=O)O)NC(=O)[C@H](CC(C)C)NC(=O)[C@@H](N)CO)[C@@H](C)CC)C(C)C)[C@@H](C)O)C(=O)N[C@@H](CCCCN)C(=O)N[C@@H](CCCCN)C(=O)N[C@@H](CC(C)C)C(=O)N[C@@H](CCC(=O)O)C(=O)N[C@@H](CCC(=O)O)C(=O)N[C@@H](CO)C(=O)N[C@@H](Cc1ccc(O)cc1)C(=O)N[C@H](C(=O)N[C@@H](CC(=O)O)C(=O)N[C@@H](CC(C)C)C(=O)N[C@@H](CCCCN)C(=O)N[C@@H](CCC(=O)O)C(=O)N[C@@H](CC(C)C)C(=O)O)[C@@H](C)CC [EK1]
SARS-CoV-2
  EC50: 5.4 µM
[2]
  CC50: > 100 µM

## C[C@@]1(O)[C@H](O)[C@@H](CO)O[C@H]1n1cnc2c(=O)[nH]c(N)nc21 [NM 108]
BVDV
  EC50: 1.6 µM
MDBK cells
  CC50: > 100 µM

## Enfuvirtide
HIV-1
  In vitro efficacy EC50 HIV-1: 0.017 µg/mL

## enfuvirtide
[1]; mock-infected MT-4 cells, viability reduced by 50%, MTT method, read-out: Cytotoxicity in MT-4 cells CC50
  CC50 at 96 h: > 100 µg/mL
